Source: the NIST ThermoML archive (doi:10.1016/j.tca.2012.05.004)
Numbers after ± are expanded uncertainties.

Assay: xn = mol fraction of the nth substance listed
Conditions: 101.3 kPa, Liquid, Vibrating tube method

ClCCCl [1,2-dichloroethane] + CC(C)O
mass density [kg/m3]
Conditions | 288.15 K | 293.15 K | 298.15 K | 303.15 K | 308.15 K | 313.15 K
x2 = 0.05 | 1235.82 ± 0.56 | 1228.61 ± 0.55 | 1221.38 ± 0.54 | 1214.13 ± 0.53 | 1206.71 ± 0.53 | 1199.46 ± 0.52
x2 = 0.1004 | 1211.74 ± 0.53 | 1204.56 ± 0.52 | 1197.38 ± 0.52 | 1190.17 ± 0.51 | 1182.93 ± 0.5 | 1175.66 ± 0.49
x2 = 0.1497 | 1188.26 ± 0.51 | 1181.19 ± 0.5 | 1174.09 ± 0.49 | 1166.95 ± 0.48 | 1159.78 ± 0.47 | 1152.57 ± 0.47
x2 = 0.2 | 1164.61 ± 0.48 | 1157.64 ± 0.47 | 1150.63 ± 0.46 | 1143.59 ± 0.46 | 1136.5 ± 0.45 | 1129.37 ± 0.44
x2 = 0.25 | 1141.22 ± 0.45 | 1134.37 ± 0.45 | 1127.47 ± 0.44 | 1120.53 ± 0.43 | 1113.54 ± 0.42 | 1106.5 ± 0.42
x2 = 0.3002 | 1117.88 ± 0.43 | 1111.14 ± 0.42 | 1104.37 ± 0.41 | 1097.54 ± 0.41 | 1090.67 ± 0.4 | 1083.74 ± 0.39
x2 = 0.3502 | 1094.71 ± 0.41 | 1088.11 ± 0.4 | 1081.46 ± 0.39 | 1074.76 ± 0.38 | 1068 ± 0.38 | 1061.19 ± 0.37
x2 = 0.4001 | 1071.46 ± 0.38 | 1065.13 ± 0.38 | 1058.72 ± 0.37 | 1052.15 ± 0.36 | 1045.52 ± 0.35 | 1038.83 ± 0.35
x2 = 0.4503 | 1048.29 ± 0.36 | 1042.07 ± 0.35 | 1035.7 ± 0.34 | 1029.28 ± 0.34 | 1022.79 ± 0.33 | 1016.23 ± 0.33
x2 = 0.4996 | 1025.41 ± 0.34 | 1019.32 ± 0.33 | 1013.1 ± 0.32 | 1006.83 ± 0.32 | 1000.49 ± 0.31 | 994.079 ± 0.31
x2 = 0.5502 | 1002 ± 0.31 | 996.011 ± 0.31 | 989.957 ± 0.31 | 983.831 ± 0.31 | 977.648 ± 0.31 | 971.39 ± 0.31
x2 = 0.6 | 978.769 ± 0.31 | 972.943 ± 0.31 | 967.056 ± 0.31 | 961.099 ± 0.31 | 955.079 ± 0.31 | 948.987 ± 0.31
x2 = 0.6498 | 955.713 ± 0.31 | 950.066 ± 0.31 | 944.351 ± 0.31 | 938.562 ± 0.31 | 932.714 ± 0.31 | 926.783 ± 0.31
x2 = 0.7 | 932.242 ± 0.31 | 926.773 ± 0.31 | 921.244 ± 0.31 | 915.641 ± 0.31 | 909.966 ± 0.31 | 904.209 ± 0.31
x2 = 0.75 | 908.934 ± 0.31 | 903.601 ± 0.31 | 898.262 ± 0.31 | 892.85 ± 0.31 | 887.36 ± 0.31 | 881.789 ± 0.31
x2 = 0.7996 | 885.608 ± 0.31 | 880.568 ± 0.31 | 875.378 ± 0.31 | 870.212 ± 0.31 | 864.918 ± 0.31 | 859.549 ± 0.31
x2 = 0.8495 | 861.973 ± 0.32 | 857.114 ± 0.32 | 852.182 ± 0.32 | 847.228 ± 0.32 | 842.144 ± 0.32 | 836.984 ± 0.32
x2 = 0.8998 | 837.957 ± 0.32 | 833.329 ± 0.32 | 828.632 ± 0.32 | 823.858 ± 0.32 | 819.006 ± 0.32 | 814.085 ± 0.32
x2 = 0.9497 | 813.892 ± 0.32 | 809.502 ± 0.32 | 805.032 ± 0.32 | 800.505 ± 0.32 | 795.891 ± 0.32 | 791.195 ± 0.32
